The record followed here is patent publication US9290511B2, “Thieno-pyrimidines, useful as potassium channel inhibitors” (XENTION LIMITED, priority 2011, dated 2016).

This assay deals with T1, Kir3.1/3.4 (Rattus norvegicus, UniProt P48548+P63251).
T1 construct: expressed in transfected cells
T1 sequence (P63251 1-501): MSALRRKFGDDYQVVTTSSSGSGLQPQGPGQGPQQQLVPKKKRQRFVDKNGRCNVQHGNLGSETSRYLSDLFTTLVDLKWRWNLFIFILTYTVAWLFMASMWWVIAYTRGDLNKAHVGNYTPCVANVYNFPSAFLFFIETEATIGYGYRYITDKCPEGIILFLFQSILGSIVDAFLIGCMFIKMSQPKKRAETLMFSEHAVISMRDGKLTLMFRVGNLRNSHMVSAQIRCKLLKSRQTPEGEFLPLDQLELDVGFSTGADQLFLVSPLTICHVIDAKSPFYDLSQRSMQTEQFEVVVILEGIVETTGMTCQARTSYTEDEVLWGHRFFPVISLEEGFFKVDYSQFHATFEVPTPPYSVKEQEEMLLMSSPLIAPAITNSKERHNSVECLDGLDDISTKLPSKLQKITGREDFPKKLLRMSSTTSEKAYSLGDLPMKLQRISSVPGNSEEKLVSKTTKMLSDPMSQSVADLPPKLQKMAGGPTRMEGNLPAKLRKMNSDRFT
T1 sequence (P48548 1-419): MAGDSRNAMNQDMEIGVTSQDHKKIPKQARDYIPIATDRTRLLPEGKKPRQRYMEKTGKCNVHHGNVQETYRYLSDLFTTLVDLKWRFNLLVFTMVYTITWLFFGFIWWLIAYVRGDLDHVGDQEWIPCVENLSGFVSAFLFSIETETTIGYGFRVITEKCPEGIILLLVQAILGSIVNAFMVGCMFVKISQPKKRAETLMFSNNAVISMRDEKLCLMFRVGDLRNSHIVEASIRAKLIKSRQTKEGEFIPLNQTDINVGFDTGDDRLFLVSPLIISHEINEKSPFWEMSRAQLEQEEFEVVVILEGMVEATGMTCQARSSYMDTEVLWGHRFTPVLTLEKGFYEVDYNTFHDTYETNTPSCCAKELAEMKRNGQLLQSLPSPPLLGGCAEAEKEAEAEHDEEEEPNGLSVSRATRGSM
The experiment in a line: Kir3.1/3.4 Electrophysiology Method (manual whole-cell patch clamp). It is filed as cell-based. To be noted: Electrophysiology Method (TABLE 1). In a few lines: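 Percent inhibition is relative to the pre-drug current, both leak-subtracted using a potassium-free bather, taken as the mean current at −140 mV. The protocol was a step to +60 mV, a ramp to −140 mV, then a return to −60 mV holding, every 10 s. Cells were rat Kir3.1/3.4-transfected HEK293 recorded by whole-cell patch clamp.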
(In general: Patch clamp records ionic current or voltage across a cell membrane.)
`NC1CCCN(CC2CCN(c3ncnc4scc(-c5ccccc5)c34)CC2)C1` (stereo not shown) [Example 211]: the IC50 is below 500 nM.
As for `CN1CCN(CC2CCN(c3ncnc4scc(-c5ccccc5)c34)CC2)CC1` [Example 214], the figure is below 500 nM.
As for `c1ccc(-c2csc3nc(OC4CC5CC4CN5)nc(N4C5CCC4COC5)c23)cc1` (stereo not shown) [Example 349, 8-[2-(2-azabicyclo[2.2.1]heptan-5-yloxy)-5-phenyl-thieno[2,3-d]pyrimidin-4-yl]-3-oxa-8-azabicyclo[3.2.1]octane], the figure is below 500 nM; as for `c1ccc(-c2csc3ncnc(N4CCC(CNCCC5CCCN5)CC4)c23)cc1` (stereo not shown) [Example 85, N-[[1-(5-phenylthieno[2,3-d]pyrimidin-4-yl)-4-piperidyl]methyl]-2-pyrrolidin-2-yl-ethanamine], 500 to 3000 nM.
Next, `NC(=O)C1CCN(c2nc(N3CCC(CNC4CCC4)CC3)c3c(-c4ccccc4)csc3n2)C1` (stereo not shown) [Example 128]: 500 to 3000 nM; `O=C(NCCO)c1sc2ncnc(N3CCC(COCCN4CCCC4)CC3)c2c1-c1ccccc1` [Example 280]: 500 to 3000 nM; `c1ccc(-c2csc3nc(N4CCN(CCN5CCCC5)CC4)ncc23)cc1` [Example 145]: below 500 nM.
As for `NC(=O)C1CCN(c2nc(N3CCOCC3)c3c(-c4ccccc4)csc3n2)C1` (stereo not shown) [Example 306], the half-inhibitory concentration (IC50) lay in the range of 3000 to 10000 nM.
As for “N-(2-pyrrolidin-1-ylethyl)thieno[2,3-d]pyrimidin-2-amine [Example 127]”, the figure is below 500 nM.
Next, `CCCNCC1CCN(c2ncnc3scc(-c4ccccc4)c23)CC1` [Example 51, N-[[1-(5-phenylthieno[2,3-d]pyrimidin-4-yl)-4-piperidyl]methyl]propan-1-amine]: 500 to 3000 nM; `c1ccc(-c2csc3ncnc(N4[C@@H]5CC[C@H]4CC(COCCN4CCCC4)C5)c23)cc1` (stereo partly drawn) [Example 164, 5-phenyl-4-[(1S,5R)-3-(2-pyrrolidin-1-ylethoxymethyl)-8-azabicyclo[3.2.1]octan-8-yl]thieno[2,3-d]pyrimidine]: below 500 nM; `CC(C)c1csc2ncnc(N3CC4CC3CC4OCCN3CC[C@@H](F)C3)c12` (stereo partly shown) [Example 295]: below 500 nM.
As for `CC(C)c1csc2ncnc(N3CC4CC3CC4OCCN3CCCC3)c12` (stereo not shown) [Example 288], the figure is below 500 nM.
Regarding `Cn1ccnc1CCNCC1CCN(c2ncnc3scc(-c4ccccc4)c23)CC1` [Example 221], the IC50 is below 500 nM.
Next, `c1nc(N2CCC(COCCN3CCCC3)CC2)c2c(-c3ccoc3)csc2n1` [Example 315]: below 500 nM; `CC(=O)Nc1sc2ncnc(N3CCC(COCCN4CCCC4)CC3)c2c1-c1ccccc1` [Example 162, N-[5-phenyl-4-[4-(2-pyrrolidin-1-ylethoxymethyl)-1-piperidyl]thieno[2,3-d]pyrimidin-6-yl]acetamide]: below 500 nM; `CN1CCC(N(C)CC2CCN(c3nc(N4CCCCC4C(N)=O)nc4scc(-c5ccccc5)c34)CC2)C1` (stereo not shown) [Example 129]: 500 to 3000 nM.
As for `CCN(CC)C(=O)C1CCCN(CC2CCN(c3ncnc4scc(-c5ccccc5)c34)CC2)C1` (stereo not shown) [Example 246], the figure is below 500 nM; as for `c1ccc(-c2csc3ncnc(N4CC[C@@H](COCCN5CCCC5)C4)c23)cc1` [Example 262], below 500 nM; as for `Fc1ccc(C2CCN(CC3CCN(c4ncnc5scc(-c6ccccc6)c45)CC3)C2)cc1` (stereo not shown) [Example 70, 4-[4-[[3-(4-fluorophenyl)pyrrolidin-1-yl]methyl]-1-piperidyl]-5-phenyl-thieno[2,3-d]pyrimidine], below 500 nM.
The molecule `CN1CCC(N(C)CC2CCN(c3ncnc4sc(C(=O)N(C)C)c(-c5ccccc5)c34)CC2)C1` (stereo not shown) [Example 136] returned an IC50 of 500 to 3000 nM.
As for `c1cc2c(N3C4CCC3COC4)nc(N3CCC(COCCN4CCCC4)CC3)nc2s1` [Example 302], the figure is below 500 nM; as for `COCCN1CCN(c2nc(N3CCC(CN(C)C4CCN(C)C4)CC3)c3c(-c4ccccc4)csc3n2)CC1` (stereo not shown) [Example 122], below 500 nM; as for `CN(C)C1CCN(C2CCN(c3ncnc4scc(-c5ccccc5)c34)CC2)CC1` [Example 222], below 500 nM.
`F[C@H]1CCN(CC2CCN(c3ncnc4scc(-c5ccccc5)c34)CC2)C1` [Example 92, 4-[4-[[(3S)-3-fluoropyrrolidin-1-yl]methyl]-1-piperidyl]-5-phenyl-thieno[2,3-d]pyrimidine] had an IC50 of 500 to 3000 nM.
`FC(F)(F)C1CCN(CC2CCN(c3ncnc4scc(-c5ccccc5)c34)CC2)CC1` [Example 99, 5-phenyl-4-[4-[[4-(trifluoromethyl)-1-piperidyl]methyl]-1-piperidyl]thieno[2,3-d]pyrimidine] came in with an IC50 of 500 to 3000 nM.
For `CC(=O)N1CCCC1CCN(C)CC1CCN(c2ncnc3scc(-c4ccccc4)c23)CC1` (stereo not shown) [Example 89, 1-[2-[2-[methyl-[[1-(5-phenylthieno[2,3-d]pyrimidin-4-yl)-4-piperidyl]methyl]amino]ethyl]pyrrolidin-1-yl]ethanone], the IC50 was in the range of 500 to 3000 nM.
Next, `F[C@@H]1CCN(CCOCC2CCN(c3ncc4c(-c5ccccc5)csc4n3)CC2)C1` [Example 151]: below 500 nM.
As for `COCCNc1nc(N2CCC(CN3CCCC(N(C)C)C3)CC2)c2c(-c3ccccc3)csc2n1` (stereo not shown) [Example 124], the figure is below 500 nM.
Next, `CN(C)[C@@H]1CCN(CC2CCN(c3nc(N4CCC(C(N)=O)C4)nc4scc(-c5ccccc5)c34)CC2)C1` (stereo partly shown) [Example 236]: below 500 nM; `CC(C)c1csc2nc(N3CCC(COCCN4CCCC4)CC3)ncc12` [Example 157]: below 500 nM; `Fc1ccc(-c2csc3ncnc(N4CC5C(COCCN6CC[C@@H](F)C6)C5C4)c23)cc1` (stereo partly shown) [Example 278]: below 500 nM.
For the molecule `CN1CCCCC1CCNCC1CCN(c2ncnc3scc(-c4ccccc4)c23)CC1` (stereo not shown) [Example 80, 2-(1-methyl-2-piperidyl)-N-[[1-(5-phenylthieno[2,3-d]pyrimidin-4-yl)-4-piperidyl]methyl]ethanamine], the IC50 was below 500 nM.
Next, `N#Cc1sc2nccc(N3CCC(COCCN4CCCC4)CC3)c2c1-c1ccccc1` [Example 144]: below 500 nM; `O=C1CN(CC2CCN(c3ncnc4scc(-c5ccccc5)c34)CC2)CCN1` [Example 213]: 500 to 3000 nM.
As for `c1ccc(-c2csc3ncnc(N4CCC(CN5CCC5)CC4)c23)cc1` [Example 73, 4-[4-(azetidin-1-ylmethyl)-1-piperidyl]-5-phenyl-thieno[2,3-d]pyrimidine], the figure is 500 to 3000 nM.
Next, `O=C(CNCC1CCN(c2ncnc3scc(-c4ccccc4)c23)CC1)N1CCCC1` [Example 105]: below 500 nM.
In turn, `CN(C)C(=O)c1sc2ncnc(N3CCC(COCCN4CCCC4)CC3)c2c1-c1cccc(F)c1` [Example 138] had a half-inhibitory concentration (IC50) below 500 nM.
As for `c1ccc(-c2csc3ncnc(N4CCC(CNCC5CC5)CC4)c23)cc1` [Example 49, 1-cyclopropyl-N-[[1-(5-phenylthieno[2,3-d]pyrimidin-4-yl)-4-piperidyl]methyl]methanamine], the figure is below 500 nM.
As for `COCCNCC1CCN(c2nc(N3CCC(COC)CC3)c3c(-c4ccccc4)csc3n2)CC1` [Example 192], the figure is below 500 nM; as for `NC(=O)[C@@H]1CCCN1CC1CCN(c2ncnc3scc(-c4ccccc4)c23)CC1` [Example 106], below 500 nM.
As for `OC1CCCN(CC2CCN(c3ncnc4scc(-c5ccccc5)c34)CC2)C1` (stereo not shown) [Example 55, 1-[[1-(5-phenylthieno[2,3-d]pyrimidin-4-yl)-4-piperidyl]methyl]piperidin-3-ol], the figure is 500 to 3000 nM; as for `c1ccc(-c2csc3nc(N4CCC(COCCN5CCCC5)CC4)nc(N4CCOCC4)c23)cc1` [Example 276], below 500 nM; as for `CN(CC1CCN(c2ncnc3scc(-c4ccccc4)c23)CC1)CC1CCCN1` (stereo not shown) [Example 83, N-methyl-1-[1-(5-phenylthieno[2,3-d]pyrimidin-4-yl)-4-piperidyl]-N-(pyrrolidin-2-ylmethyl)methanamine], below 500 nM.
In turn, `OCCNc1nc(N2CCC(CCO)CC2)c2c(-c3ccc(F)cc3)csc2n1` [Example 171] had an IC50 of 500 to 3000 nM.
Next, `CC(C)(C)OC(=O)N1CCCC1CCNCC1CCN(c2ncnc3scc(-c4ccccc4)c23)CC1` (stereo not shown) [Example 82, tert-butyl 2-[2-[[1-(5-phenylthieno[2,3-d]pyrimidin-4-yl)-4-piperidyl]methylamino]ethyl]pyrrolidine-1-carboxylate]: below 500 nM.

In general, IC50 refers to the point on the concentration scale where inhibition reaches its midpoint.
